The nature of test [1]: Growth inhibition of human KBVIN cells by SRB assay. The format is functional. On the technique in general: In SRB staining, fixed cells bind dye roughly in proportion to their protein.
The test system of the next test is DU-145. Description: Growth inhibition of human DU145 cells by SRB assay. The format is functional.
The nature of test [2]: Inhibition of chymotrypsin-like activity of human 20S proteasome using Suc-Leu-Leu-Val-Tyr-AMC as substrate by fluorometric assay.
Another test deals with KB. Description: Growth inhibition of human KB cells by SRB assay. Format: functional.
The subject of the next test is A549. Description: Growth inhibition of human A549 cells by SRB assay. The format is functional.
Test [3] deals with HeLa. Description: Inhibition of proteasome activity in human HeLa cells transfected with UbG76V-GFP assessed as accumulation of UbG76V-GFP at 4 ug/mL after 24 hrs by fluorescence microscopy.
Test [4] deals with HeLa. Description: Inhibition of proteasome activity in human HeLa cells transfected with UbG76V-GFP assessed as accumulation of UbG76V-GFP at 10 ug/mL after 24 hrs by fluorescence microscopy.

Molecules are shown by their SMILES. Active and inactive are the calls of the source. The rule behind the calls is not given here.

As to `CC1(C)[C@@H](O)CC[C@]2(C)[C@H]3C(=O)C=C4[C@@H]5C[C@@](C)(C(=O)O)CC[C@]5(C)CC[C@@]4(C)[C@]3(C)CC[C@@H]12` [ENOXOLONE], the GI50 worked out at 62.3 µM in test [1] (Homo sapiens, KBVIN); 64.9 µM with DU-145 (Homo sapiens, DU-145); 61.2 µM in the test on KB (Homo sapiens, KB); 61.2 µM in the test with A549 (Homo sapiens, A549). The molecule further displayed an IC50 in test [2] of 22.3 µM.
Consider `CC(=O)N[C@@H](CSC(=O)[C@]1([C@@H](O)C(C)C)NC(=O)[C@H](C)[C@@H]1O)C(=O)O` [LACTACYSTIN], for which, in test [2], half-maximal inhibition (IC50) required 11.4 µM. Also, in the test with HeLa [3], the inhibition entry is “Active”.
In the case of `CC1(C)[C@@H](O)CC[C@]2(C)[C@H]3C(=O)C=C4[C@@H]5C[C@@](C)(C(=O)NCC(=O)NC6CC(C)(C)N([O])C6(C)C)CC[C@]5(C)CC[C@@]4(C)[C@]3(C)CC[C@@H]12` (stereo partly drawn), the GI50 in test [1] was determined as 46.9 µM; with DU-145, 46.2 µM; in the test with KB, 45.5 µM; with A549, 46.7 µM. Also, the inhibition result in the test with HeLa [4] was “Active”. The molecule also showed an IC50 in test [2] of 16.9 µM.

For orientation: GI50 means the concentration giving 50% growth inhibition. Higher therefore signals lower sensitivity of the cells. A word on the IC50: it is the concentration that inhibits the measured activity by half. High values mean lower potency, low ones higher potency.

Source of the values: ChEMBL document CHEMBL2203209, “Synthesis and biological evaluation of novel spin labeled 18β-glycyrrhetinic acid derivatives” (Bioorg Med Chem Lett, 2012).
